US20240174618A1, “SUBSTITUTED (2-HETEROARYLOXYPHENYL)SULFONATES, SALTS THEREOF AND THEIR USE AS HERBICIDAL AGENTS” (Bayer Aktiengesellschaft, priority 2021, published 2024)

Columns and labels:
Assay type in all cases: in vivo
Kochia scoparia (KCHSC) [1] = assay: A. Herbicidal pre-emergence efficacy, KCHSC
Summary of the method: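 Applied before emergence onto covering soil at rates of 1280 g/ha or less, using 600 L/ha spray water with 0.5% additive. Scoring: visual % efficacy after ~3 weeks, greenhouse.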

Poa annua (POAAN) = assay: B. Herbicidal post-emergence efficacy, POAAN
Summary of the method: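 Weeds grown in sandy loam in greenhouse pots, sprayed at one-leaf stage (2–3 weeks after sowing) with WP or EC formulations as aqueous suspension/emulsion plus 0.5% additive at 600 L/ha water, rates up to 1280 g/ha. Visual efficacy rated about 3 weeks later versus untreated controls (0% = like control, 100% = dead).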

[2] = test system: Digitaria sanguinalis (DIGSA); assay: C. Herbicidal pre-emergence efficacy, DIGSA; conditions: scored after about 3 weeks
Summary of the method: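 Pre-emergence test: formulated compounds sprayed as aqueous suspension or emulsion with 0.5% additive at 600 l/ha onto soil covering sown seeds, at rates corresponding to 320 g/ha or less. After about 3 weeks in greenhouse, efficacy scored visually as percent versus untreated controls (100% = plants dead).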

[3] = test system: Amaranthus retroflexus (AMARE); assay: E. Herbicidal post-emergence efficacy, AMARE
Summary of the method: (§1)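 Visual scoring against untreated plants was done roughly 3 weeks after spraying (0% = no effect, 100% = plants dead). Spray application at 320 g/ha or lower, 600 l/ha water with 0.5% additive, was made onto green parts of one-leaf-stage greenhouse plants grown 2-3 weeks in sandy loam.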

[4] = test system: Echinochloa crus-galli (ECHCG); assay: E. Herbicidal post-emergence efficacy, ECHCG
Summary of the method: as §1

[5] = test system: Polygonum convolvulus (POLCO); assay: E. Herbicidal post-emergence efficacy, POLCO
Summary of the method: as §1

Kochia scoparia (KCHSC) [6] = assay: E. Herbicidal post-emergence efficacy, KCHSC
Summary of the method: as §1

[7] = test system: Triticum aestivum (TRZAS); assay: F. Post-emergence effect on useful plants, TRZAS; conditions: useful plant
Summary of the method: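 Visual efficacy rating versus untreated plants, from 0% (no effect) to 100% (plants died), made about 3 weeks after post-emergence treatment. Formulated compounds (WP or EC, 0.5% additive, 600 l/ha water) were sprayed onto greenhouse-grown crops at the one-leaf stage, 2-3 weeks after sowing.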

[8] = 80 g/ha, scored visually after about 3 weeks vs untreated controls
[9] = pre-emergence, dosage 1280 g/ha

SMILES	Post-emergence efficacy against TRZAS in % ([7]; application rate 80 g/ha) [%]	Post-emergence efficacy against TRZAS in % ([7]; application rate 320 g/ha) [%]	Pre-emergence efficacy against KCHSC (Kochia scoparia (KCHSC) [1]; [8]) [%]	Pre-emergence efficacy against KCHSC (Kochia scoparia (KCHSC) [1]; pre-emergence, dosage 320 g/ha) [%]	Pre-emergence efficacy against KCHSC (Kochia scoparia (KCHSC) [1]; [9]) [%]	Post-emergence efficacy against POAAN (Poa annua (POAAN); 80 g/ha) [%]	Post-emergence efficacy against POAAN (Poa annua (POAAN); 320 g/ha) [%]	Post-emergence efficacy against POAAN (Poa annua (POAAN); 1280 g/ha) [%]	Pre-emergence efficacy against DIGSA ([2]; 80 g/ha) [%]	Pre-emergence efficacy against DIGSA ([2]; 320 g/ha) [%]	Post-emergence efficacy against AMARE in % ([3]; application rate 80 g/ha) [%]	Post-emergence efficacy against AMARE in % ([3]; application rate 320 g/ha) [%]	Post-emergence efficacy against ECHCG in % ([4]; application rate 320 g/ha) [%]	Post-emergence efficacy against POLCO in % ([5]; application rate 320 g/ha) [%]	Post-emergence efficacy against KCHSC in % (Kochia scoparia (KCHSC) [6]; application rate 80 g/ha) [%]	Post-emergence efficacy against KCHSC in % (Kochia scoparia (KCHSC) [6]; application rate 320 g/ha) [%]	Post-emergence efficacy against ECHCG in % ([4]; application rate 80 g/ha) [%]	Post-emergence efficacy against POLCO in % ([5]; application rate 80 g/ha) [%]
O=S(=O)(CCC1CC1)Oc1c(F)cccc1Oc1ncc(Cl)cn1 [Example I-55]	20			100	100		90	90	100	100	90	100	100	100	80	90	90	90
O=S(=O)(CCCC(F)F)Oc1c(F)cccc1Oc1ncc(Cl)cn1 [Example I-56]	10		100	100	100	90	90	90	100	100	100	100	100	100	100	100	80	
O=S(=O)(CCCC(F)(F)C(F)(F)F)Oc1c(F)cccc1Oc1ncc(Cl)cn1 [Example I-68]	20	20	90	100	100		90	100	100	100	90	100	90	90	80	90		80

More lines, main results first:

Post-emergence efficacy against TRZAS in % ([7]; application rate 80 g/ha) [%]	Post-emergence efficacy against TRZAS in % ([7]; application rate 320 g/ha) [%]	SMILES	Pre-emergence efficacy against KCHSC (Kochia scoparia (KCHSC) [1]; [8]) [%]	Pre-emergence efficacy against KCHSC (Kochia scoparia (KCHSC) [1]; pre-emergence, dosage 320 g/ha) [%]	Pre-emergence efficacy against KCHSC (Kochia scoparia (KCHSC) [1]; [9]) [%]	Post-emergence efficacy against POAAN (Poa annua (POAAN); 80 g/ha) [%]	Post-emergence efficacy against POAAN (Poa annua (POAAN); 320 g/ha) [%]	Post-emergence efficacy against POAAN (Poa annua (POAAN); 1280 g/ha) [%]	Pre-emergence efficacy against DIGSA ([2]; 80 g/ha) [%]	Pre-emergence efficacy against DIGSA ([2]; 320 g/ha) [%]	Post-emergence efficacy against AMARE in % ([3]; application rate 80 g/ha) [%]	Post-emergence efficacy against AMARE in % ([3]; application rate 320 g/ha) [%]	Post-emergence efficacy against ECHCG in % ([4]; application rate 320 g/ha) [%]	Post-emergence efficacy against POLCO in % ([5]; application rate 320 g/ha) [%]	Post-emergence efficacy against KCHSC in % (Kochia scoparia (KCHSC) [6]; application rate 80 g/ha) [%]	Post-emergence efficacy against KCHSC in % (Kochia scoparia (KCHSC) [6]; application rate 320 g/ha) [%]	Post-emergence efficacy against ECHCG in % ([4]; application rate 80 g/ha) [%]	Post-emergence efficacy against POLCO in % ([5]; application rate 80 g/ha) [%]
0	10	C=CCCS(=O)(=O)Oc1c(F)cccc1Oc1ncc(Cl)cn1 [Example I-50]	90	100	100	90	90	90	100	100	100	100	100	100	80	100		
0	0	COCCS(=O)(=O)Oc1c(F)cccc1Oc1ncc(Cl)cn1 [Example I-52]		90	100		90	90	80	100		100	100	80	90	100		
